Experimental data reported in patent publication US20050085441A1, “Use of soluble monovalent oligosaccharides as inhibitors of HIV-1 fusion and replication” (priority 2002, published 2005).

Key:
[1] = system: HIV-1 (strain NL4.3); experiment: HIV-1 replication in vivo in NOD-SCID huPBL mice (p24, viral load in peritoneal wash)
[2] = system: HIV-1 laboratory strain NL4.3; experiment: Viral p24 antigen release, HIV-1 NL4.3 in MT-2 cells; format: cell-based; settings: for reduction of production of p24: day 7 post-infection; for effect on release of antigen p24: 0.5-50.0 mM tested, concentration not given
[3] = system: vesicular stomatis virus (VSV) G protein; format: cell-based, vesicular stomatitis virus
[4] = system: HIV-2 isolate CBL23; experiment: Replication of HIV-2 clinical isolate CBL23 in MT-2 cells; format: cell-based; settings: single oligosaccharide
Description: The effect of the oligosaccharides was also tested on the replication of CLB23, a T -tropic clinical isolate of HIV-2.

[5] = system: HIV-1 M-tropic strain Ba-L; experiment: Replication of M-tropic strain Ba-L in human peripheral blood monocytes (p24 release); settings: 0.5, 5 and 25 mM, MOI 0.001
[6] = system: HIV-1 laboratory strain NL4.3; experiment: Syncytia formation in MT-2 cells infected with HIV-1 NL4.3; format: cell-based
[7] = system: HIV-1 clinical isolate 1936; experiment: Replication of T-tropic clinical isolate 1936 in MT-2 cells (p24 release); format: cell-based
[8] = system: HIV-1 clinical isolate ME46; experiment: Replication of T-tropic clinical isolate ME46 in MT-2 cells (p24 release)
Description: MT-2 cells were infected as described above, and the course of infection was followed by the release of p24.

[9] = system: HIV-1 T-tropic envelope protein of HXB2; format: cell-based; settings: virions with HIV HXB2 envelope protein, MT-2 cells

Compound	HIV-1 replication (p24 and viral load) ([1]; globotriose 15 mg/mouse i.p. single dose, days 2 and 6 post infection)	HIV-1 replication (p24 and viral load) ([1]; repeat experiment, single dose at beginning of infection, day 6)	release of antigen p24 ([2]; 5 mM or lower)	reduction of production of p24 ([2]; 25 mM globotriose)	release of antigen p24 ([2]; 25 mM, effect maximum at days 3 and 7, recovered at day 10 post-infection)	expression of the luciferase reporter [3]	inhibition of replication of HIV-2 isolate CBL23 [4]	inhibition of replication of strain Ba-L (p24 release) [5]	formation of syncytia (number and size) ([6]; 25 mM, MT-2 cells, NL4.3)	size of syncytia (number of nuclei) ([6]; concentrations lower than 25 mM)	inhibition of replication of isolate 1936 ([7]; 5 mM and above)	inhibition of replication of isolate ME46 ([8]; 5 mM and above)	expression of the luciferase reporter [9]	effect on release of antigen p24 [2]	reduction of production of p24 ([2]; 5 mM lactose)	effect on formation of syncytia ([6]; 0.5-50.0 mM tested, concentration not given)	effect on replication of isolate 1936 ([7]; 25 mM)	effect on replication of isolate ME46 ([8]; 15 mM)	inhibition of replication of isolate ME46 ([8]; 25 mM)
OC[C@H]1O[C@H](O[C@@H]2[C@H](O)[C@@H](O)[C@H](O[C@H]3[C@H](O)[C@@H](O)C(O)O[C@@H]3CO)O[C@@H]2CO)[C@H](O)[C@@H](O)[C@H]1O (stereo partly drawn) [globotriose, galactose α1-4galactose β1-4glucose]	strongly inhibited	diminished replication	not at 5 mM or lower	5 fold	inhibited	no effect was observed except for the highest concentration	much weaker than for the HIV-1 isolates	did not inhibit	completely inhibited	decreased	more than ten-fold	more than ten-fold	inhibited	–	–	–	–	–	–
CC(=O)N[C@H]1[C@H](O[C@H]2[C@@H](O)[C@@H](CO)O[C@@H](O[C@H]3[C@H](O)[C@@H](O)C(O)O[C@@H]3CO)[C@@H]2O)O[C@H](CO)[C@@H](O)[C@@H]1O[C@@H]1O[C@H](CO)[C@H](O)[C@H](O)[C@H]1O (stereo partly shown) [lacto-N-tetraose, reference compound]	–	–	–	–	–	–	–	ineffective	–	–	–	–	–	ineffective	–	–	–	–	–
OC[C@H]1O[C@@H](O[C@H]2[C@H](O)[C@@H](O)[C@H](O)O[C@@H]2CO)[C@H](O)[C@@H](O)[C@H]1O [lactose, o-β-D-galactopyranosyl-(1-4)-β-D-glucopyranose]	–	–	–	–	–	no effect was observed	basically non-effective	ineffective	–	–	–	–	inhibited	less potent than globotriose	2 fold	weaker than that exhibited by globotriose	practically did not affect	minor effect	ten-fold
